From patent US11421145B2, “Oil recovery methods using a formulation containing an unsaturated zwitterionic surfactant and a polymer” (King Fahd University of Petroleum and Minerals, priority 2019, dated 2022)

What was measured:
[1] = Solubility and compatibility in seawater (SW) and formation water (FW); assay type: physicochemical
Protocol: Synthetic seawater (SW) and formation water (FW) were prepared using NaCl, Na2SO4, NaHCO3, CaCl2, and MgCl2. All the salts were obtained from Sigma-Aldrich, USA.
Solubility and compatibility of the surfactant in the reservoir and injection brine are the primary considerations for further evaluation of the unsaturated surfactant for EOR application. If the surfactant is not soluble in the seawater and formation brine, it can be rejected at the initial stage. […] After the compatibility test with SW and FW, the short-term thermal stability of the synthesized unsaturated surfactant was evaluated using TGA analysis. […] Only 3% weight loss was observed up to 200° C., which was mainly associated with solvent and water evaporation. […] TGA results helped to identify and eliminate the surfactants that had lower decomposition temperatures. However, for real field applications, long-term thermal stability of the surfactant must be considered, as the surfactant residence time in the reservoir could vary from a few days to a few months.

[2] = Compatibility of surfactant with AM-AMPS copolymer; assay type: physicochemical; details: commercially available AM-AMPS copolymer
Protocol: The interactions of the synthesized unsaturated surfactant with a commercially available copolymer of acrylamide and 2-acrylamido-2-methylpropane sulfonic acid (AM-AMPS) were evaluated using compatibility and rheological tests.

precipitation or phase separation on dissolution ([1]; SW (57,643 ppm) and FW (213,734 ppm)): no precipitation or phase separation
solubility in SW and FW ([1]; seawater and formation water): excellent solubility
compatibility with acrylamide copolymer [2]: excellent compatibility
SMILES: CCCCCCCC/C=C\CCCCCCCC(=O)NCCC[N+](C)(C)CCCS(=O)(=O)[O-] [unsaturated surfactant, 3-(N-oleamidopropyl-N,N-dimethylammonium) propane sulfonate]
